Laboratory results from patent US10654867B2 (Genentech, Inc., priority 2016, dated 2020).

Biological target: T1, estrogen receptor alpha (ESR1) in MCF7 breast cancer cells (Homo sapiens, UniProt P03372)
T1 sequence (P03372 1-595): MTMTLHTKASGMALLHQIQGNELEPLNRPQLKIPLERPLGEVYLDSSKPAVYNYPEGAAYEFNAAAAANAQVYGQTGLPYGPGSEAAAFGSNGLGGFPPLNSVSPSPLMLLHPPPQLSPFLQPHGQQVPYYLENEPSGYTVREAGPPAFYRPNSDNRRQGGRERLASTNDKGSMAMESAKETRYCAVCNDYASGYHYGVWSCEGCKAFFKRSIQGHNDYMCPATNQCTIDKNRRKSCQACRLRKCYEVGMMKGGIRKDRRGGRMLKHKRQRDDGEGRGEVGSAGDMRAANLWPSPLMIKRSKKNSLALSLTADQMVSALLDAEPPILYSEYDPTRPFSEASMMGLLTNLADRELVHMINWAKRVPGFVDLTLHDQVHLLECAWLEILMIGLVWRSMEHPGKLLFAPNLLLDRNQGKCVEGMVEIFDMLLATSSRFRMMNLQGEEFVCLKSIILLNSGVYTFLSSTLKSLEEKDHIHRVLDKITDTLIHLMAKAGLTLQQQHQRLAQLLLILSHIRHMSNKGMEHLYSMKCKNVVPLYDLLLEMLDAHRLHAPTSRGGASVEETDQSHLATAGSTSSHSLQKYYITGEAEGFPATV
Experiment: Breast Cancer Cell ERa High Content Fluorescence Imaging Degradation Assay (ER-alpha MCF7 HCS)
Format: cell-based
Parameters: endogenous in cells; host or cells: MCF7 breast cancer cells; key to ERalpha (WT) MCF7HCS (Sinf): % change in ERα level; DMSO = 0%, fulvestrant = 100% change
Conditions: 4 hours, plateau of the maximal effect; for ER-alpha MCF7HCS Sinf: DMSO and fulvestrant define 0% and 100% change in ESR1, Table 1a; for ERalpha (WT) MCF7HCS (Sinf): DMSO and fulvestrant define 0% and 100% change in ESR1, Table 1b
Procedure: All of the exemplary Formula I, II, and III compounds in Tables 1a and 1b were made and characterized by LCMS [M+H]^+ (liquid chromatography mass spectroscopy) with detection of parent ion. All of the exemplary Formula I, II, and III compounds in Tables 1a and 1b were tested for binding to ERa (Estrogen Receptor alpha) and biological activity according to the assays, protocols, and procedures of Examples 901-907. ER-alpha MCF7 HCS Sinf (%) values in Tables 1a and 1b were measured by the Breast Cancer Cell ERa High Content Fluorescence Imaging Degradation Assay of Example 901. ER-alpha MCF7 HCS EC50 (μM) values in Tables 1a and 1b were measured by the in vitro cell proliferation assays described in Examples 902 and 903. The rat uterine wet weight assays of Examples 906 and 907 allow rapid determination of compound antagonist activity in an ER responsive tissue (immature rat uterus) while competing against the native ER ligand estradiol, i.e. antagonist mode (Ashby, J.; et al (1997) Regulatory toxicology and pharmacology: RTP, 25 (3):226-31). Exemplary Formula I, II, and III compounds in Tables 1a and 1b have the following structures, corresponding names (ChemBioDraw, Version 12.0.2, CambridgeSoft Corp., Cambridge Mass.), and biological activity. Where more than one name is associated with a Formula I, II, and III compound or intermediate, the chemical structure shall define the compound.
MCF7 breast cancer cells were seeded on day 1 at a density of 10,000 cells per well in 384 well poly-lysine coated tissue culture plate (Greiner # T-3101-4), in 50 μL/well RPMI (phenol red free), 10% FBS (Charcoal stripped), containing L-glutamine. On day 2, compounds were prepared at 2 compound source concentrations: 100 μM and 1 μM (ultimately to give 2 overlapping titration curves), in a Labcyte low dead volume plate, 10 μL/well, and 10 μL of DMSO in designated wells for backfill, and 5 μM Fulvestrant (control compound) in designated wells. Compounds and controls were dispensed using a Labcyte Echo acoustic dispenser to dispense compounds with a predefined serial dilution (1.8×, 10 point, in duplicate) and appropriate backfill and control compounds (final total volume transferred was 417.5 nL and compound dispense volume ranges from 2.5 nL to 417.5 nL; 0.84% DMSO (v/v) final), ultimately producing a concentration range from 0.05 nM to 835 nM. Cell plates were incubated at 37° C., for 4 hours. Fixation and permeabilization were carried out using a Biotek EL406 plate washer and dispenser as follows. Cells were fixed by addition of 15 μL of 16% paraformaldehyde (Electron Microscopy Sciences #15710-S) directly to the 50 μL cell culture medium in each well using the peristaltic pump 5 μL cassette on a Biotek EL406 (final concentration of formaldehyde was 3.7% w/v). Samples were incubated 30 minutes. Well contents was aspirated and 50 μL/well of Phosphate Buffered Saline (PBS) containing 0.5% w/v bovine serum albumen, 0.5% v/v Triton X-100 (Antibody Dilution Buffer) was added to each well. Samples were incubated for 30 minutes. Well contents were aspirated and washed 3 times with 100 μL/well of PBS. Immunofluorescence staining of estrogen receptor alpha (ESR1) was carried out using a Biotek EL406 plate washer and dispenser as follows. The well supernatant was aspirated from the wells and 25 μL/well of anti-ESR1 mAb (F10) (Santa Cruz sc-8002) diluted 1:1000 in Antibody Dilution Buffer was dispensed. Samples were incubated for 2 hours at room temperature. Samples were washed 4 times with 100 μL/well of PBS. 25 uL (microliters)/well of secondary antibody solution (Alexafluor 488 conjugate anti-mouse IgG (LifeTechnologies # A21202) diluted 1:1000 and Hoechst 33342 1 μg/ml diluted in Antibody Dilution Buffer) were dispensed into each well. Samples were incubated for 2 hours at room temperature. Samples were washed 3 times with 100 μL/well of PBS using a Biotek EL406. Quantitative fluorescence imaging of ESR1 was carried out using a Cellomics Arrayscan V (Thermo). […]

| Structure (SMILES) | ER-alpha MCF7HCS Sinf | ERalpha (WT) MCF7HCS (Sinf) |
| --- | --- | --- |
| C[C@@H]1Cn2c(cc3ccccc32)[C@@H](c2c(F)cc(OC3CN(CCCF)C3)cc2F)N1CC(C)(F)CO (stereo partly drawn) [Example 122, 3-((1R,3R)-1-(2,6-Difluoro-4-((1-(3-fluoropropyl)azetidin-3-yl)oxy)phenyl)-3-methyl-3,4-dihydropyrazino[1,2-a]indol-2(1H)-yl)-2-fluoro-2-methylpropan-1-ol] | −97% | – |
| C[C@@H]1Cn2c(cc3ccccc32)[C@@H](c2c(F)cc(NC3CN(CCCF)C3)cc2F)N1CC(F)(F)F [Example 146, N-(3,5-Difluoro-4-((1R,3R)-3-methyl-2-(2,2,2-trifluoroethyl)-1,2,3,4-tetrahydropyrazino[1,2-a]indol-1-yl)phenyl)-1-(3-fluoropropyl)azetidin-3-amine] | −100% | – |
| CC(C)(F)C(=O)N1CCCc2c([nH]c3ccccc23)[C@H]1c1c(F)cc(OCCN2CC(CF)C2)cc1F [Example 106, (R)-1-(1-(2,6-difluoro-4-(2-(3-(fluoromethyl)azetidin-1-yl)ethoxy)phenyl)-3,4,5,10-tetrahydroazepino[3,4-b]indol-2(1H)-yl)-2-fluoro-2-methylpropan-1-one] | −35% | – |
| C[C@H]1Cc2c(oc3ccccc23)[C@H](c2c(F)cc(NC3CN(CCCF)C3)cc2F)N1CC(F)(F)CO (single isomer, unassigned) [Example 158] | −88.8% | – |
| C[C@@H]1Cn2c(cc3ccccc32)[C@@H](c2c(F)cc([C@@H](O)C3CN(CCCF)C3)cc2F)N1CC(F)(F)CO (single isomer, unassigned) [Example 163] | – | −100 |
| C[C@@H]1CN(CC(C)(C)F)[C@H](c2c(F)cc(OCCN3CC(CF)C3)cc2F)c2[nH]c3ccccc3c21 (single isomer, unassigned) [Example 108] | −92.4% | – |
| C[C@@H]1Cc2c([nH]c3cccnc23)[C@@H](c2c(F)cc(OC3CN(CCCF)C3)cc2F)N1CC(C)(C)F [Example 133, (6R,8R)-6-{2,6-Difluoro-4-[2-(3-fluoromethyl-azetidin-1-yl)-ethoxy]-phenyl}-7-(2-fluoro-2-methyl-propyl)-8-methyl-6,7,8,9-tetrahydro-5H-dipyrido[3,2-b;4′,3′-d]pyrrole] | −94.5% | – |
| C[C@@H]1Cn2c(cc3ccccc32)[C@@H](c2c(F)cc([C@H](O)C3CN(CCCF)C3)cc2F)N1CC(F)(F)CO (single isomer, unassigned) [Example 164] | – | −98.6 |
| C[C@@H]1Cc2[nH]c3ccccc3c2[C@@H](c2c(F)cc(NC3CN(CCCF)C3)cc2F)N1CC(F)(F)CO (single isomer, unassigned) [Example 155] | −97.4% | – |
| C[C@H]1CCN(CC(C)(C)F)[C@H](c2c(F)cc(OCCN3CC(CF)C3)cc2F)c2[nH]c3ccccc3c21 [Example 125, (1R,5S)-1-(2,6-difluoro-4-(2-(3-(fluoromethyl)azetidin-1-yl)ethoxy)phenyl)-2-(2-fluoro-2-methylpropyl)-5-methyl-1,2,3,4,5,10-hexahydroazepino[3,4-b]indole] | −101% | – |
| C[C@@H]1Cc2sc3ccccc3c2[C@H](c2ccc(OCCN3CC(CF)C3)cc2)N1CC(C)(C)F (single isomer, unassigned) [Example 130] | −76.8% | – |
| CC1(C)CN(CC(F)(F)CO)[C@H](c2c(F)cc(NC3CN(CCCF)C3)cc2F)c2[nH]c3ccccc3c21 [Example 142, (R)-3-(1-(2,6-difluoro-4-(1-(3-fluoropropyl)azetidin-3-ylamino)phenyl)-4,4-dimethyl-3,4-dihydro-1H-pyrido[3,4-b]indol-2(9H)-yl)-2,2-difluoropropan-1-ol] | −96% | – |
| C[C@H]1Cc2oc3ccccc3c2[C@H](c2c(F)cc(OCCN3CC(CF)C3)cc2F)N1CC(C)(C)F (stereo in doubt) [Example 168, 1-(2,6-difluoro-4-(2-(3-(fluoromethyl)azetidin-1-yl)ethoxy)phenyl)-2-(2-fluoro-2-methylpropyl)-3-methyl-1,2,3,4-tetrahydrobenzofuro [3,2-c]pyridine] | – | −97 |
| C[C@@H]1Cn2c(cc3ccccc32)[C@H](c2c(F)cc(NC3CN(CCCF)C3)cc2F)N1CC(F)(F)F [Example 145, N-(3,5-Difluoro-4-((1S,3R)-3-methyl-2-(2,2,2-trifluoroethyl)-1,2,3,4-tetrahydropyrazino[1,2-a]indol-1-yl)phenyl)-1-(3-fluoropropyl)azetidin-3-amine] | −87% | – |
| C[C@H]1Cc2sc3ccccc3c2[C@H](c2ccc(OCCN3CC(CF)C3)cc2)N1CC(C)(C)F [Example 129, (1S,3S)-2-(2-Fluoro-2-methylpropyl)-1-(4-(2-(3-(fluoromethyl)azetidin-1-yl)ethoxy)phenyl)-3-methyl-1,2,3,4-tetrahydrobenzo[4,5]thieno[3,2-c]pyridine] | −43.8% | – |
| C[C@@H]1Cc2[nH]c3ccccc3c2[C@@H](c2c(F)cc(OC3CN(CCCF)C3)cc2F)N1CC(F)(F)CO (relative stereo) [Example 144, trans-3-(1-(2,6-difluoro-4-(1-(3-fluoropropyl)azetidin-3-yloxy)phenyl)-3-methyl-3,4-dihydro-1H-pyrido[4,3-b]indol-2(5H)-yl)-2,2-difluoropropan-1-ol] | −98.8% | – |
| C[C@@H]1CN(CC(C)(C)F)[C@@H](c2c(F)cc(OCCN3CC(CF)C3)cc2F)c2[nH]c3ccccc3c21 (single isomer, unassigned) [Example 109] | −74.6% | – |
| C[C@@H]1Cn2c(cc3ccccc32)[C@@H](c2c(F)cc(OC3CN(CCCF)C3)cc2F)N1CC(C)(C)F [Example 110, (1R,3R)-1-(2,6-Difluoro-4-((1-(3-fluoropropyl)azetidin-3-yl)oxy)phenyl)-2-(2-fluoro-2-methylpropyl)-3-methyl-1,2,3,4-tetrahydropyrazino[1,2-a]indole] | −100% | – |
| C[C@@H]1Cc2[nH]c3ccccc3c2[C@@H](c2c(F)cc(NC3CN(CCCF)C3)cc2F)N1CC(F)F [Example 150, N-(4-((1S,3R)-2-(2,2-difluoroethyl)-3-methyl-2,3,4,5-tetrahydro-1H-pyrido[4,3-b]indol-1-yl)-3,5-difluorophenyl)-1-(3-fluoropropyl) azetidin-3-amine] | −99.4% | – |
